Reference: patent US20160250177A1, “MODIFIED DOCETAXEL LIPOSOME FORMULATIONS AND USES THEREOF” (MALLINCKRODT LLC, priority 2015, published 2016)
Read-outs that look alike come from different tables or passages of the source.

Columns and labels:
[1] = human, in vivo; for AUC/Dose / CL / Cmax/Dose / Vss: iv
clinical = details: human, in vivo

With “distearoyl-phosphatidylethanolamine-N-[methoxy(polyethene glycol)-2000] [DSPE(PEG-2000)]” the “CL (mean)” value [1] was 0.025 L/h/m^2, the “Vss (mean)” value [1] was 1.409 L/m^2 and the “dose proportionality for Cmax and AUCinf” value [1] was “demonstrate dose proportionality”.

With CC(=O)O[C@@]12CO[C@@H]1C[C@H](O)[C@@]1(C)C(=O)[C@H](O)C3=C(C)[C@@H](OC(=O)[C@H](OC(=O)CN4CCN(C)CC4)[C@@H](NC(=O)OC(C)(C)C)c4ccccc4)C[C@@](O)([C@@H](OC(=O)c4ccccc4)[C@H]21)C3(C)C [TD-1] the half-life (clinical; average t1/2 for TD-1) was about 51 h, the AUC(0-inf) (clinical; iv, 3 mg/m2) was 103 µg·h/mL and the Cmax (clinical; iv, 3 mg/m2) was 1.52 µg/mL. For the same compound, the half-life (clinical; iv, 3 mg/m2, t1/2) was 48.8 h, the AUC(0-inf) (clinical; iv, 6 mg/m2) was 252 µg·h/mL and the Cmax (clinical; iv, 6 mg/m2) was 3.15 µg/mL. For the same compound, the half-life (clinical; iv, 6 mg/m2, t1/2) was 57.6 h, the AUC(0-inf) (clinical; iv, 12 mg/m2) was 457 µg·h/mL and the Cmax (clinical; iv, 12 mg/m2) was 6.48 µg/mL. For the same compound, the half-life (clinical; iv, 12 mg/m2, t1/2) was 44 h, the AUC(0-inf) (clinical; iv, 24 mg/m2) was 955 µg·h/mL and the Cmax (clinical; iv, 24 mg/m2) was 13.7 µg/mL. It also gave a half-life (clinical; iv, 24 mg/m2, t1/2) of 43.8 h, an AUC(0-inf) (clinical; iv, 48 mg/m2) of 2660 µg·h/mL and a Cmax (clinical; iv, 48 mg/m2) of 30.7 µg/mL. The half-life (clinical; iv, 48 mg/m2, t1/2) was 59.3 h, the AUC(0-inf) (clinical; iv, 80 mg/m2) was 2390 µg·h/mL and the Cmax (clinical; iv, 80 mg/m2) was 43.4 µg/mL. For the same compound, the half-life (clinical; iv, 80 mg/m2, t1/2) was 26.7 h, the AUC(0-inf) (clinical; iv, 120 mg/m2) was 6280 µg·h/mL and the Cmax (clinical; iv, 120 mg/m2) was 68.8 µg/mL. For the same compound, the half-life (clinical; iv, 120 mg/m2, t1/2) was 48.3 h, the AUC(0-inf) (clinical; iv, 160 mg/m2) was 9440 µg·h/mL and the Cmax (clinical; iv, 160 mg/m2) was 98.5 µg/mL. The half-life (clinical; iv, 160 mg/m2, t1/2) was 66.1 h, the AUC(0-inf) (clinical; iv, 190 mg/m2) was 9810 µg·h/mL and the Cmax (clinical; iv, 190 mg/m2) was 143 µg/mL. For the same compound, the half-life (clinical; iv, 190 mg/m2, t1/2) was 53 h, the AUC(0-inf) (clinical; iv, 225 mg/m2) was 13200 µg·h/mL and the Cmax (clinical; iv, 225 mg/m2) was 149 µg/mL. For the same compound, the half-life (clinical; iv, 225 mg/m2, t1/2) was 54.5 h, the AUC(0-inf) (clinical; iv, 270 mg/m2) was 8370 µg·h/mL and the Cmax (clinical; iv, 270 mg/m2) was 150 µg/mL. For the same compound, the half-life (clinical; iv, 270 mg/m2, t1/2) was 35.6 h, the AUC(0-inf) (clinical; iv, 320 mg/m2) was 13000 µg·h/mL and the Cmax (clinical; iv, 320 mg/m2) was 205 µg/mL. The half-life (clinical; iv, 320 mg/m2, t1/2) was 43.7 h, the AUC(0-inf) (clinical; iv, 380 mg/m2) was 34100 µg·h/mL and the Cmax (clinical; iv, 380 mg/m2) was 310 µg/mL. The half-life (clinical; iv, 380 mg/m2, t1/2) was 84.4 h, the half-life (clinical; t1/2 (mean)) was about 50 h and the “CL (mean)” value [1] was 0.025 L/h/m^2. For the same compound, the “Cmax and AUC with respect to dose” value [1] was “remained linear with respect to dose”, the “Vss (mean)” value [1] was 1.422 L/m^2 and the “dose proportionality for Cmax and AUCinf” value [1] was “demonstrate dose proportionality”. The AUC/Dose ([1]; 12 mg/m2) was 38106 m^2 · ng · h/ml/mg, the CL ([1]; 12 mg/m2) was 0.0283 l/h/m^2 and the Cmax/Dose ([1]; 12 mg/m2) was 539.6 m^2 · ng/ml/mg. The Vss ([1]; 12 mg/m2) was 1.46 l/m^2, the AUC/Dose ([1]; 48 mg/m2) was 55469 m^2 · ng · h/ml/mg and the CL ([1]; 48 mg/m2) was 0.0186 l/h/m^2. It also gave a Cmax/Dose ([1]; 48 mg/m2) of 640.3 m^2 · ng/ml/mg, a Vss ([1]; 48 mg/m2) of 1.40 l/m^2 and an AUC/Dose ([1]; 120 mg/m2) of 52326 m^2 · ng · h/ml/mg. For the same compound, the CL ([1]; 120 mg/m2) was 0.0202 l/h/m^2, the Cmax/Dose ([1]; 120 mg/m2) was 573.6 m^2 · ng/ml/mg and the Vss ([1]; 120 mg/m2) was 0.090 l/m^2. For the same compound, the AUC/Dose ([1]; 225 mg/m2) was 58571 m^2 · ng · h/ml/mg, the CL ([1]; 225 mg/m2) was 0.0184 l/h/m^2 and the Cmax/Dose ([1]; 225 mg/m2) was 662.2 m^2 · ng/ml/mg. The Vss ([1]; 225 mg/m2) was 1.08 l/m^2, the AUC/Dose ([1]; 320 mg/m2) was 405478 m^2 · ng · h/ml/mg and the CL ([1]; 320 mg/m2) was 0.0260 l/h/m^2. For the same compound, the Cmax/Dose ([1]; 320 mg/m2) was 640.6 m^2 · ng/ml/mg and the Vss ([1]; 320 mg/m2) was 1.58 l/m^2.
